Data from patent US20080064667A1, “OXAZOLE DERIVATIVES OF TETRACYCLINES” (Wyeth, priority 2003, published 2008).
In brackets after ≈: the same amount, converted by molar mass.

Columns and labels:
Experiment in all cases: MIC, broth microdilution (NCCLS)
Format in all cases: cell-based
[1] = tested on: C. albicans GC3066 ATCC (Control); conditions: Candida albicans, Mueller-Hinton II broth, 18-22 hours at 35° C.
[2] = tested on: E. faecalis GC2242 (Van-resistant); conditions: Enterococcus faecalis, Mueller-Hinton II broth, 18-22 hours at 35° C.
How it was run: (§1)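 MICs determined in cation-standard Mueller-Hinton II broth with serial drug dilutions, each strain inoculated to 10^5 CFU/ml. Incubation: 35 °C, ambient air, 18-22 h, following NCCLS broth microdilution guidance.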

[3] = tested on: S. pneumoniae* GC1894 (Clinical); conditions: Streptococcus pneumoniae, Mueller-Hinton II broth, 18-22 hours at 35° C.
How it was run: as §1

[4] = tested on: E. coli GC2203 (ATCC Control); conditions: Escherichia coli, Mueller-Hinton II broth, 18-22 hours at 35° C.
How it was run: as §1

[5] = tested on: S. aureus GC6467 (tet(M) + (K)); conditions: Staphylococcus aureus
How it was run: as §1

[6] = tested on: S. pneumoniae* GC4465 (Clinical); conditions: Streptococcus pneumoniae, Mueller-Hinton II broth, 18-22 hours at 35° C.
How it was run: as §1

[7] = tested on: S. aureus GC4536 (Smith MP -In Vivo); conditions: Staphylococcus aureus, Mueller-Hinton II broth, 18-22 hours at 35° C.
How it was run: as §1

[8] = tested on: S. aureus GC2216 (ATCC Control); conditions: Staphylococcus aureus, Mueller-Hinton II broth, 18-22 hours at 35° C.
How it was run: as §1

[9] = tested on: H. influenzae<> GC6896 (ATCC Control); conditions: Haemophilus influenzae, Mueller-Hinton II broth, 18-22 hours at 35° C.
How it was run: as §1

[10] = tested on: S. aureus GC1131 (Clinical); conditions: Staphylococcus aureus, Mueller-Hinton II broth, 18-22 hours at 35° C.
How it was run: as §1

[11] = tested on: S. pyogenes* GC4563 (Clinical); conditions: Streptococcus pyogenes, Mueller-Hinton II broth, 18-22 hours at 35° C.
How it was run: as §1

[12] = tested on: S. aureus GC6466 (tet(M)); conditions: Staphylococcus aureus, Mueller-Hinton II broth, 18-22 hours at 35° C.
How it was run: as §1

[13] = tested on: S. aureus GC1079 (tet(K)); conditions: Staphylococcus aureus, Mueller-Hinton II broth, 18-22 hours at 35° C.
How it was run: as §1

[14] = tested on: E. faecalis GC2267 (tet(L) + (M) + (S)); conditions: Enterococcus faecalis
How it was run: as §1

[15] = tested on: E. faecalis GC4555 (ATCC Control); conditions: Enterococcus faecalis, Mueller-Hinton II broth, 18-22 hours at 35° C.
How it was run: as §1

[16] = tested on: E. coli GC4559 (parent GC4560); conditions: Escherichia coli, Mueller-Hinton II broth, 18-22 hours at 35° C.
How it was run: as §1

[17] = tested on: M. catarrhalis* GC6907 (Clinical); conditions: Moraxella catarrhalis, Mueller-Hinton II broth, 18-22 hours at 35° C.
How it was run: as §1

[18] = tested on: E. coli GC4560 (IMP mutant); conditions: Escherichia coli
How it was run: as §1

E. coli GC1073 (tet(B)) = conditions: Escherichia coli
How it was run: as §1

E. coli GC2270 (tet(M)) = conditions: Escherichia coli
How it was run: as §1

Structure (SMILES) | MIC [1] [µg/mL] | MIC [2] [µg/mL] | MIC [3] [µg/mL] | MIC [4] [µg/mL] | MIC [5] [µg/mL] | MIC [6] [µg/mL] | MIC [7] [µg/mL] | MIC [8] [µg/mL] | MIC [9] [µg/mL] | MIC [10] [µg/mL] | MIC [11] [µg/mL] | MIC [12] [µg/mL] | MIC [13] [µg/mL] | MIC [14] [µg/mL] | MIC [15] [µg/mL] | MIC [16] [µg/mL] | MIC [17] [µg/mL] | MIC [18] [µg/mL] | MIC (E. coli GC1073 (tet(B))) [µg/mL] | MIC (E. coli GC2270 (tet(M))) [µg/mL]
CCCCNCc1nc2cc(N(C)C)c3c(c2o1)C(=O)C1=C(O)[C@]2(O)C(=O)C(C(N)=O)=C(O)[C@@H](N(C)C)[C@@H]2C[C@@H]1C3 [Example 39, (6aR,7aS,8S,11aS)-2-[(butylamino)methyl]-5,8-bis(dimethylamino)-9,11a,12-trihydroxy-11,13-dioxo-6,6a,7,7a,8,11,11a,13-octahydrotetraceno[2,1-d][1,3]oxazole-10-carboxamide] | > 64 | 32 (≈ 56.4 µM) | 8 (≈ 14.1 µM) | 32 (≈ 56.4 µM) | > 64 | 8 (≈ 14.1 µM) | 32 (≈ 56.4 µM) | 32 (≈ 56.4 µM) | 64 (≈ 113 µM) | 32 (≈ 56.4 µM) | 8 (≈ 14.1 µM) | 32 (≈ 56.4 µM) | 64 (≈ 113 µM) | 64 (≈ 113 µM) | 32 (≈ 56.4 µM) | 32 (≈ 56.4 µM) | 8 (≈ 14.1 µM) | 8 (≈ 14.1 µM) | – | –
CN(C)c1cc2nc(-c3ccc(OCc4ccccc4)cc3)oc2c2c1C[C@H]1C[C@H]3[C@H](N(C)C)C(O)=C(C(N)=O)C(=O)[C@@]3(O)C(O)=C1C2=O [Example 11, (6aR,7aS,8S,11aS)-2-[4-(benzyloxy)phenyl]-5,8-bis(dimethylamino)-9,11a,12-trihydroxy-11,13-dioxo-6,6a,7,7a,8,11,11a,13-octahydrotetraceno[2,1-d](1,3]oxazole-10-carboxamide] | > 64 | 64 (≈ 96.3 µM) | 32 (≈ 48.1 µM) | > 64 | – | 32 (≈ 48.1 µM) | 64 (≈ 96.3 µM) | 64 (≈ 96.3 µM) | > 64 | 32 (≈ 48.1 µM) | 32 (≈ 48.1 µM) | 64 (≈ 96.3 µM) | 64 (≈ 96.3 µM) | > 64 | 64 (≈ 96.3 µM) | > 64 | 32 (≈ 48.1 µM) | > 64 | > 64 | > 64
CN(C)c1cc2nc(-c3ccsc3)oc2c2c1C[C@H]1C[C@H]3[C@H](N(C)C)C(O)=C(C(N)=O)C(=O)[C@@]3(O)C(O)=C1C2=O [Example 17, (6aR,7aS,8S,11aS)-5,8-bis(dimethylamino)-9,11a,12-trihydroxy-11,13-dioxo-2-thien-3-yl-6,6a,7,7a,8,11,11a,13-octahydrotetraceno[2,1-d][1,3]oxazole-10-carboxamide] | > 64 | 8 (≈ 14.2 µM) | 32 (≈ 56.7 µM) | > 64 | – | 32 (≈ 56.7 µM) | 8 (≈ 14.2 µM) | 8 (≈ 14.2 µM) | > 64 | 8 (≈ 14.2 µM) | 16 (≈ 28.3 µM) | 8 (≈ 14.2 µM) | 8 (≈ 14.2 µM) | 16 (≈ 28.3 µM) | 8 (≈ 14.2 µM) | > 64 | 16 (≈ 28.3 µM) | 4 (≈ 7.08 µM) | > 64 | > 64
CN(C)c1ccc(-c2nc3cc(N(C)C)c4c(c3o2)C(=O)C2=C(O)[C@]3(O)C(=O)C(C(N)=O)=C(O)[C@@H](N(C)C)[C@@H]3C[C@@H]2C4)cc1 [Example 8, (6aR,7aS,8S,11aS)-5,8-bis(dimethylamino)-2-[4-(dimethylamino)phenyl]-9,11a,12-trihydroxy-11,13-dioxo-6,6a,7,7a,8,11,11a,13-octahydrotetraceno[2,1-d][1,3]oxazole-10-carboxamide] | > 64 | 8 (≈ 13.3 µM) | 16 (≈ 26.6 µM) | > 64 | – | 32 (≈ 53.2 µM) | 16 (≈ 26.6 µM) | 8 (≈ 13.3 µM) | > 64 | 8 (≈ 13.3 µM) | 16 (≈ 26.6 µM) | 16 (≈ 26.6 µM) | 16 (≈ 26.6 µM) | 16 (≈ 26.6 µM) | 32 (≈ 53.2 µM) | > 64 | 64 (≈ 106 µM) | 16 (≈ 26.6 µM) | > 64 | > 64
CN(C)Cc1nc2cc(N(C)C)c3c(c2o1)C(=O)C1=C(O)[C@]2(O)C(=O)C(C(N)=O)=C(O)[C@@H](N(C)C)[C@@H]2C[C@@H]1C3 [Example 36, (6aR,7aS,8S,11aS)-5,8-bis(dimethylamino)-2-[(dimethylamino)methyl]-9,11a,12-trihydroxy-11,13-dioxo-6,6a,7,7a,8,11,11a,13-octahydrotetraceno[2,1-d][1,3]oxazole-10-carboxamide] | > 64 | 4 (≈ 7.41 µM) | 1 (≈ 1.85 µM) | 2 (≈ 3.71 µM) | 16 (≈ 29.7 µM) | 1 (≈ 1.85 µM) | 4 (≈ 7.41 µM) | 2 (≈ 3.71 µM) | 4 (≈ 7.41 µM) | 4 (≈ 7.41 µM) | 1 (≈ 1.85 µM) | 4 (≈ 7.41 µM) | 4 (≈ 7.41 µM) | – | 4 (≈ 7.41 µM) | 4 (≈ 7.41 µM) | 1 (≈ 1.85 µM) | 1 (≈ 1.85 µM) | – | –
CN(C)c1cc2nc(-c3ccc4c(c3)OCO4)oc2c2c1C[C@H]1C[C@H]3[C@H](N(C)C)C(O)=C(C(N)=O)C(=O)[C@@]3(O)C(O)=C1C2=O [Example 14, (6aR,7aS,8S,11aS)-2-(1,3-benzodioxol-5-yl)-5,8-bis(dimethylamino)-9,11a,12-trihydroxy-11,13-dioxo-6,6a,7,7a,8,11,11a,13-octahydrotetraceno[2,1-d][1,3]oxazole-10-carboxamide] | > 64 | 4 (≈ 6.64 µM) | 16 (≈ 26.6 µM) | > 64 | 8 (≈ 13.3 µM) | 16 (≈ 26.6 µM) | 4 (≈ 6.64 µM) | 4 (≈ 6.64 µM) | > 64 | 4 (≈ 6.64 µM) | 16 (≈ 26.6 µM) | 4 (≈ 6.64 µM) | 4 (≈ 6.64 µM) | – | 8 (≈ 13.3 µM) | > 64 | 4 (≈ 6.64 µM) | 16 (≈ 26.6 µM) | > 64 | > 64
CCCNCc1nc2cc(N(C)C)c3c(c2o1)C(=O)C1=C(O)[C@]2(O)C(=O)C(C(N)=O)=C(O)[C@@H](N(C)C)[C@@H]2C[C@@H]1C3 [Example 38, (6aR,7aS,8S,11aS)-5,8-bis(dimethylamino)-9,11a,12-trihydroxy-11,13-dioxo-2-[(propylamino)methyl]-6,6a,7,7a,8,11,11a,13-octahydrotetraceno[2,1-d][1,3]oxazole-10-carboxamide] | > 64 | 16 (≈ 28.9 µM) | 4 (≈ 7.23 µM) | 32 (≈ 57.8 µM) | > 64 | 4 (≈ 7.23 µM) | 16 (≈ 28.9 µM) | 32 (≈ 57.8 µM) | 64 (≈ 116 µM) | 32 (≈ 57.8 µM) | 4 (≈ 7.23 µM) | 32 (≈ 57.8 µM) | 64 (≈ 116 µM) | 64 (≈ 116 µM) | 16 (≈ 28.9 µM) | 32 (≈ 57.8 µM) | 4 (≈ 7.23 µM) | 8 (≈ 14.5 µM) | – | –
CC(=O)OCc1ccc(-c2nc3cc(N(C)C)c4c(c3o2)C(=O)C2=C(O)[C@]3(O)C(=O)C(C(N)=O)=C(O)[C@@H](N(C)C)[C@@H]3C[C@@H]2C4)o1 [Example 21, {5-[(6aR,7aS,8S,11aS)-10-(aminocarbonyl)-5,8-bis(dimethylamino)-9,11a,12-trihydroxy-11,13-dioxo-6,6a,7,7a,8,11,11a,13-octahydrotetraceno[2,1-d][1,3]oxazol-2-yl]-2-furyl}methyl acetate] | > 64 | 32 | > 64 | > 64 | – | > 64 | 64 | 32 | > 64 | 64 | > 64 | 32 | 32 | 64 | > 64 | > 64 | > 64 | > 64 | > 64 | > 64
